Laboratory results as given in publication PMC8654832 (Scientific Reports, 2021).
Like-named read-outs stand apart in the source and are kept apart here.

Assays:
[1] = system: HCT116p53-/- (colorectal carcinoma); assay: Cell viability, MTT assay; details: 72 h, read-out: Cell viability data, IC50
[2] = system: A-431 (epidermoid carcinoma); assay: Cell viability, MTT assay; details: read-out: Cell viability data, IC50
[3] = system: HEPG2 (hepatocellular carcinoma); assay: Cell viability, MTT assay; details: read-out: Cell viability data, IC50
[4] = target: T1, catalytic subunit of human protein kinase CK2 (hCK2α) (Homo sapiens, UniProt P68400); assay: Isothermal titration calorimetry (ITC), reverse mode
T1 sequence (P68400 whole entry): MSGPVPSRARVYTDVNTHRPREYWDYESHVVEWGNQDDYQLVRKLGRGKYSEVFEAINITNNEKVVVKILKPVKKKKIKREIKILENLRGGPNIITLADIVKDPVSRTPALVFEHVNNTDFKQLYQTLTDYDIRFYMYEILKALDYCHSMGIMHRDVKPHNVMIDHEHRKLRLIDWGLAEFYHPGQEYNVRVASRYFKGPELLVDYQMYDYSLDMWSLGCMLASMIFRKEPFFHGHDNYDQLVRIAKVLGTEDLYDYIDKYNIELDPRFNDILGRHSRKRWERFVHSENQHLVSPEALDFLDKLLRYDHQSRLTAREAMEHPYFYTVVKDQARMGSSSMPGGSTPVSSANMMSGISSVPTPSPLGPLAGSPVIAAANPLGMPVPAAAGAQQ

[5] = target: T1, catalytic subunit of human protein kinase CK2 (hCK2α); parameters: made in house; host or cells: Escherichia coli BL21(DE3), plasmid pET28; details: DSF, binding to hCK2α, cited from earlier work
[6] = Dynamic light scattering (DLS), aggregation in aqueous medium; type: physicochemical; details: 25 mM Tris–HCl pH 8, 0.5 M NaCl, 2% DMSO, 25 °C
Description: Experiments were carried out at 25 °C with the DynaPro NanoStar 192-DPN apparatus (Wyatt Technology) equipped with 661 nm laser. The autocorrelation function for the light scattered by solute placed in Eppendorf disposable cuvettes (50–2000 μl) was measured in the range of 0.5 μs– 0.1 s at solute concentration for which short-time ACF signal approached 0.2. Solutions with 2% (v/v) DMSO content were prepared in 25 mM Tris–HCl (pH 8, 0.5 M NaCl) filtered with 220 nm pore size syringe filter. All samples were centrifuged (9000 g) for 3 min immediately before the experiment.

hCK2α = target: T2, hCK2α (Homo sapiens, UniProt P68400); assay: In vitro inhibition of hCK2α, ADP-Glo kinase assay; type: biochemical; details: 10 μM ATP, 10 μM peptide […], 20 min at 30 °C
T2 construct: made in house; host or cells: Escherichia coli BL21(DE3), plasmid pET28
T2 sequence (P68400 whole entry): as above
Description: The compound inhibitory activity was monitored based on the luminescence measured with the SpectraMax iD3 Multi-Mode Microplate Reader (Molecular Devices, San Jose, CA, USA), using the previously described method with the aid of ADP-Glo kinase assay (Promega, Walldorf, Germany)[35]. The measurements were carried in 96-well plate in volume of 25 μl in 20 mM Tris–HCl buffer (pH 7.5), containing 100 ng of hCK2α (1 μl), 10 μM CK2 substrate peptide […] (Biaffin GmbH & Co KG), 10 μM ATP, 20 mM MgCl2 and 2.5 μl of ligand serially diluted in DMSO. The reaction was initiated by adding the enzyme and kept going for 20 min at 30 °C.

[7] = system: mitochondrial inner membrane potential (ΔΨ); assay: Mitochondrial inner membrane potential, Rhodamine 123 fluorescence quenching in isolated mitochondria; details: for ligand concentration required to recover 50% of the initial fluorescence drop: Rhodamine 123, yeast mitochondria energized with EtOH, normalized to CCCP; for ligand concentration at which relative fluorescence c.a. 0.95 was reached / ligand concentration at which the membrane potential is almost fully uncoupled: Rhodamine 123, yeast mitochondria; for ligand concentration at which relative fluorescence c.a. 0.95 was reached: 1 = fully uncoupled (CCCP)
Source text: In response to variations in ΔΨ this dye accumulates proportionally inside the mitochondrial matrix, where its fluorescence is quenched, thus fluorescence changes reflect the changes in the IM potential[33],[34]. […] All the data were normalized relative to the fluorescence intensity after addition CCCP (set to 1).
To quantify the effect of ligand addition we have compared the ligand concentrations required to recover 50% of the initial fluorescence drop (dotted line), i.e. the average of value after addition of EtOH and fully decoupled ΔΨ.
At the end of each experiment the carbonyl cyanide-m-chlorophenyl hydrazone (CCCP, the IM potential uncoupler) was added at 4 μM for the normalization.

[8] = target: T1, catalytic subunit of human protein kinase CK2 (hCK2α); assay: Microscale thermophoresis (MST) pseudo-titration; type: binding; parameters: made in house; host or cells: Escherichia coli BL21(DE3), plasmid pET28
Description: Samples of protein (50 nM in 25 mM Hepes buffer pH 8 with 0.5 M NaCl and 1%DMSO content v/v) labeled with Monolith His-Tag Labeling Kit RED-tris-NTA kit (NanoTemper Technologies) were prepared with varying ligand concentration according to previously described protocol. The measurements were performed using Monolith NT.115 (NanoTemper Technologies) apparatus in standard capillaries (Nanotemper Technologies). For each ligand six independent pseudo-titration experiments, each with 16 ligand dilutions, were performed. […] The model of two independent binding sites, implemented in origin, has been already described and tested. It is worth noting that the used method of data treatment goes beyond the standard MST software capabilities.

[9] = system: HCT116 (colorectal carcinoma); assay: Cell viability, MTT assay; details: read-out: Cell viability data, IC50
[10] = second, weak site (solvent exposed region at alpha/beta interface), read-out: Kd2
[11] = strongly binding site (ATP-binding site), pH 8, 0.5 M NaCl, 1% DMSO, read-out: Kd1

Brc1c(I)c(I)c(Br)c2[nH]nnc12 [BIIB, 4,7-dibromo-5,6-diiodo-1H-benzotriazole]
IC50 ([1]; Homo sapiens): 2500 ± 200 nM
IC50 ([2]; Homo sapiens, A-431, 72 h): 2200 ± 300 nM
IC50 ([3]; Homo sapiens, HepG2, 72 h): 1500 ± 300 nM
Kd [4]: 1.3 ± 1.4 nM
ΔS1 ([4]; ITC, 25 °C, strongly binding site): 123 ± 10 J/mol/K
ΔS2 ([4]; ITC, second site): 93 ± 5 J/mol/K
Kd ([4]; read-out: Kd2, ITC, second site (solvent exposed region at alpha/beta interface)): 82 ± 42 nM
ΔTm ([5]; literature data ref 20): 10.8 ± 0.1[20] K
solute concentration at which the similar ACF distribution (nano-aggregates, radius 50–100 nm) was observed [6]: 40 µM
IC50 (hCK2α): 230 ± 150 nM
ligand concentration required to recover 50% of the initial fluorescence drop [7]: less than 2 µM
ligand concentration at which relative fluorescence c.a. 0.95 was reached [7]: ~4 µM
Kd [8, 10]: 43 ± 22 nM
Kd [8, 11]: 3 ± 6 nM
IC50 ([9]; Homo sapiens, HCT-116, 72 h): 1800 ± 300 nM

Brc1cc2nn[nH]c2cc1Br [HBBH, 5,6-dibromo-1H-benzotriazole, reference compound]
IC50 ([1]; Homo sapiens): 13000 ± 3000 nM
IC50 ([2]; Homo sapiens, A-431, 72 h): 12000 ± 2000 nM
IC50 ([3]; Homo sapiens, HepG2, 72 h): 18000 ± 4000 nM
Kd [4]: 34 ± 4 nM
ΔTm ([5]; literature data ref 18): 7.4 ± 0.1[18] K
solute concentration at which the similar ACF distribution (nano-aggregates, radius 50–100 nm) was observed [6]: 160 µM
IC50 (hCK2α): 1190 ± 530 nM
ligand concentration at which the membrane potential is almost fully uncoupled [7]: ~15 µM
ligand concentration required to recover 50% of the initial fluorescence drop [7]: > 5 µM
ligand concentration at which relative fluorescence c.a. 0.95 was reached [7]: ~12 µM
Kd [8, 10]: 327 ± 95 nM
Kd [8, 11]: 29 ± 13 nM
IC50 ([9]; Homo sapiens, HCT-116, 72 h): 19000 ± 6000 nM

Ic1cc2nn[nH]c2cc1I [HIIH, 5,6-diiodo-1H-benzotriazole]
IC50 ([1]; Homo sapiens): 9400 ± 1400 nM
IC50 ([2]; Homo sapiens, A-431, 72 h): 5300 ± 700 nM
IC50 ([3]; Homo sapiens, HepG2, 72 h): 3300 ± 400 nM
Kd [4]: 22 ± 4 nM
ΔTm ([5]; literature data ref 20): 8.3 ± 0.1[20] K
IC50 (hCK2α): 780 ± 290 nM
ligand concentration at which the membrane potential is almost fully uncoupled [7]: ~15 µM
ligand concentration required to recover 50% of the initial fluorescence drop [7]: > 5 µM
ligand concentration at which relative fluorescence c.a. 0.95 was reached [7]: ~12 µM
Kd [8, 10]: 374 ± 83 nM
Kd [8, 11]: 15 ± 7 nM
IC50 ([9]; Homo sapiens, HCT-116, 72 h): 6100 ± 1300 nM

Brc1c(Br)c(Br)c2[nH]nnc2c1Br [TBBt, 4,5,6,7-tetrabromo-1H-benzotriazole]
IC50 ([1]; Homo sapiens): 48000 ± 18000 nM
IC50 ([2]; Homo sapiens, A-431, 72 h): 7800 ± 1200 nM
IC50 ([3]; Homo sapiens, HepG2, 72 h): 13000 ± 2000 nM
IC50 ([9]; Homo sapiens, HCT-116, 72 h): 23000 ± 9000 nM

N.N.[Cl][Pt][Cl] [cisPt, cisplatin]
IC50 ([1]; HCT116p53-/-, MTT, fitted to restricted low-concentration data): 2940 ± 130 nM
IC50 ([2]; A-431, MTT, 72 h, fitted to restricted low-concentration data): 2020 ± 60 nM
IC50 ([3]; HEPG2, MTT, 72 h, fitted to restricted low-concentration data): 2430 ± 140 nM
IC50 ([9]; HCT116, MTT, 72 h, fitted to restricted low-concentration data): 4700 ± 600 nM
